Legend:
[1] = tested on: trans-sialidase TS1; assay: Trans-sialidase transfer activity of TS1 in the presence of salts, metal ions and putative inhibitors; assay type: biochemical, Trypanosoma congolense; details: for Salt effect: reduction of enzyme activity: 1M salt, de-salting produces enzyme activity again; for Effect of putative inhibitors: 10 mM
Method: (§1) In order to determine the transfer activity of the trans-sialidase, 25 μl enzyme solution in 50 mM BisTris buffer, pH7.0, are incubated together with 1 mM NeufAc-α(2-3) lactose as a donor and 0.5 mM 4-methylumbelliferyl galactoside as an acceptor in a final volume of 50 μl at 37° C. for 2 hrs. The incubation is halted by adding 1 ml ice cold water. The reaction batch is then introduced to columns previously filled with 0.3 ml Q Sepharose FF (acetate form) and pre-equilibrated with water. After having washed out the acceptor with water and having discarded the dead volume (200 μl 1N HCl), the sialated product is eluated with 1N HCl (700 μl). Following acid hydrolysis of the product at 95° C. for 45 mins and cooling on ice, the probe is neutralised with 250-290 μl 2 N NaOH and 300 μl 1M glycin/NaOH buffer pH 10.0. The fluorescence of the released methylumbelliferone is measured in black 96 well plates (Microfluor, Dynex, U.S.A.) with a stimulation wave length of 365 nm and an emission wave length of 450 nm. The activity of the enzyme corresponds to the intensity of the fluorescence measured and can be read off on a previously established calibration curve (method in accordance with Engstler et al. 1992).

[2] = tested on: trans-sialidase TS2; assay: Trans-sialidase transfer activity of TS2 in the presence of salts, metal ions and putative inhibitors; assay type: biochemical, Trypanosoma congolense; details: for Salt effect: reduction of enzyme activity: 1M salt, de-salting produces enzyme activity again; for Effect of putative inhibitors: 10 mM
Method: as §1

[Co+2] [Co^2+]
Effect of metal ions ([1]; 5 mM): Cu^2+, Zn^2+, Fe^2+, Co^2+: little effect
Effect of metal ions ([2]; 5 mM): Cu^2+, Zn^2+, Fe^2+, Co^2+: little effect

[Cu+2] [Cu^2+]
Effect of metal ions ([1]; 5 mM): Cu^2+, Zn^2+, Fe^2+, Co^2+: little effect
Effect of metal ions ([2]; 5 mM): Cu^2+, Zn^2+, Fe^2+, Co^2+: little effect

[Mn+2] [Mn^2+]
Effect of metal ions ([1]; 20 mM): 20 mM Ca^2+, Mg^2+, Mn^2+: no effect 5 mM
Effect of metal ions ([2]; 20 mM): 20 mM Ca^2+, Mg^2+, Mn^2+: no effect 5 mM

[Cl-].[Na+] [NaCl]
Salt effect: reduction of enzyme activity [1]: enzymes by 50%, de-salting produces enzyme
Salt effect: reduction of enzyme activity [2]: enzymes by 50%, de-salting produces enzyme

[Cl-].[K+] [KCl]
Salt effect: reduction of enzyme activity [1]: enzymes by 50%, de-salting produces enzyme
Salt effect: reduction of enzyme activity [2]: enzymes by 50%, de-salting produces enzyme

[Fe+2] [Fe^2+]
Effect of metal ions ([1]; 5 mM): Cu^2+, Zn^2+, Fe^2+, Co^2+: little effect
Effect of metal ions ([2]; 5 mM): Cu^2+, Zn^2+, Fe^2+, Co^2+: little effect

[Zn+2] [Zn^2+]
Effect of metal ions ([1]; 5 mM): Cu^2+, Zn^2+, Fe^2+, Co^2+: little effect
Effect of metal ions ([2]; 5 mM): Cu^2+, Zn^2+, Fe^2+, Co^2+: little effect

CC(=O)N[C@H]1[C@H]([C@H](O)[C@H](O)CO)OC(C(=O)O)=C[C@@H]1O [N-acetyl-2,3-didehydro-2-deoxyneuraminic acid, reference compound]
Effect of putative inhibitors [1]: acid: little inhibition.
Effect of putative inhibitors [2]: acid: little inhibition.

[Ca+2] [Ca^2+]
Effect of metal ions ([1]; 20 mM): 20 mM Ca^2+, Mg^2+, Mn^2+: no effect 5 mM
Effect of metal ions ([2]; 20 mM): 20 mM Ca^2+, Mg^2+, Mn^2+: no effect 5 mM

[Mg+2] [Mg^2+]
Effect of metal ions ([1]; 20 mM): 20 mM Ca^2+, Mg^2+, Mn^2+: no effect 5 mM
Effect of metal ions ([2]; 20 mM): 20 mM Ca^2+, Mg^2+, Mn^2+: no effect 5 mM

O=C(O)C(=O)Nc1ccc([N+](=O)[O-])cc1 [N-(4-nitrophenyl)oxamic acid, reference compound]
Effect of putative inhibitors [1]: 10 mM N-(4-nitrophenyl)oxamic acid: little
Effect of putative inhibitors [2]: 10 mM N-(4-nitrophenyl)oxamic acid: little
